Data reported in PubChem BioAssay AID1259407 (Chemical Carcinogenesis Research Information System (CCRIS), 2018).
Calls of active or inactive are those of the source. How the calls were made is not given here.

Test system: CCRIS mutagenicity, Ames/micronucleus/aberration tests
Assay: CCRIS mutagenicity studies

Measured: mutagenic call

CC1(C)CON(Cc2ccccc2Cl)C1=O
inactive: End Point: In vivo chromosomal aberrations, Test System: Bone marrow, Species: Rat, Strain/Sex: Sprague-Dawley/Male, Route: Gavage inactive; negative (purity 88.8%) | Test System: Ames Salmonella typhimurium, Strain/Indicator: TA98, Metabolic Activation: None, Method: Standard Plate inactive; negative (purity 92.4%) | Test System: Ames Salmonella typhimurium, Strain/Indicator: TA98, Metabolic Activation: Rat, liver, S-9, Aroclor 1254, Method: Standard Plate inactive; negative (purity 92.4%) | Test System: Ames Salmonella typhimurium, Strain/Indicator: TA100, Metabolic Activation: None, Method: Standard Plate inactive; negative (purity 92.4%) | Test System: Ames Salmonella typhimurium, Strain/Indicator: TA100, Metabolic Activation: Rat, liver, S-9, Aroclor 1254, Method: Standard Plate inactive; negative (purity 92.4%) | Test System: Ames Salmonella typhimurium, Strain/Indicator: TA1535, Metabolic Activation: None, Method: Standard Plate inactive; negative (purity 92.4%) | Test System: Ames Salmonella typhimurium, Strain/Indicator: TA1535, Metabolic Activation: Rat, liver, S-9, Aroclor 1254, Method: Standard Plate inactive; negative (purity 92.4%) | Test System: Ames Salmonella typhimurium, Strain/Indicator: TA1537, Metabolic Activation: None, Method: Standard Plate inactive; negative (purity 92.4%) | Test System: Ames Salmonella typhimurium, Strain/Indicator: TA1537, Metabolic Activation: Rat, liver, S-9, Aroclor 1254, Method: Standard Plate inactive; negative (purity 92.4%) | Test System: Ames Salmonella typhimurium, Strain/Indicator: TA1538, Metabolic Activation: None, Method: Standard Plate inactive; negative (purity 92.4%) | Test System: Ames Salmonella typhimurium, Strain/Indicator: TA1538, Metabolic Activation: Rat, liver, S-9, Aroclor 1254, Method: Standard Plate inactive; negative (purity 92.4%) | Test System: UDS Rat hepatocytes, Strain/Indicator: Thymidine incorporation, Metabolic Activation: None, Method: Autoradiography inactive; negative (purity 88.8%)

O=C1CCCCCCCCCCCC(=O)OCCO1
inactive: Test System: AMES SALMONELLA TYPHIMURIUM, Strain/Indicator: TA98, Metabolic Activation: NONE, Method: PREINCUBATION inactive; negative | Test System: AMES SALMONELLA TYPHIMURIUM, Strain/Indicator: TA98, Metabolic Activation: RAT, LIVER, S-9, SODIUM PHENOBARBITAL AND 5,6-BENZOFLAVONE, Method: PREINCUBATION inactive; negative | Test System: AMES SALMONELLA TYPHIMURIUM, Strain/Indicator: TA100, Metabolic Activation: NONE, Method: PREINCUBATION inactive; negative | Test System: AMES SALMONELLA TYPHIMURIUM, Strain/Indicator: TA100, Metabolic Activation: RAT, LIVER, S-9, SODIUM PHENOBARBITAL AND 5,6-BENZOFLAVONE, Method: PREINCUBATION inactive; negative | Test System: AMES SALMONELLA TYPHIMURIUM, Strain/Indicator: TA102, Metabolic Activation: NONE, Method: PREINCUBATION inactive; negative | Test System: AMES SALMONELLA TYPHIMURIUM, Strain/Indicator: TA102, Metabolic Activation: RAT, LIVER, S-9, SODIUM PHENOBARBITAL AND 5,6-BENZOFLAVONE, Method: PREINCUBATION inactive; negative | Test System: AMES SALMONELLA TYPHIMURIUM, Strain/Indicator: TA104, Metabolic Activation: NONE, Method: PREINCUBATION inactive; negative | Test System: AMES SALMONELLA TYPHIMURIUM, Strain/Indicator: TA104, Metabolic Activation: RAT, LIVER, S-9, SODIUM PHENOBARBITAL AND 5,6-BENZOFLAVONE, Method: PREINCUBATION inactive; negative | Test System: AMES SALMONELLA TYPHIMURIUM, Strain/Indicator: TA1535, Metabolic Activation: NONE, Method: PREINCUBATION inactive; negative | Test System: AMES SALMONELLA TYPHIMURIUM, Strain/Indicator: TA1535, Metabolic Activation: RAT, LIVER, S-9, SODIUM PHENOBARBITAL AND 5,6-BENZOFLAVONE, Method: PREINCUBATION inactive; negative | Test System: AMES SALMONELLA TYPHIMURIUM, Strain/Indicator: TA1537, Metabolic Activation: NONE, Method: PREINCUBATION inactive; negative | Test System: AMES SALMONELLA TYPHIMURIUM, Strain/Indicator: TA1537, Metabolic Activation: RAT, LIVER, S-9, SODIUM PHENOBARBITAL AND 5,6-BENZOFLAVONE, Method: PREINCUBATION inactive; negative | Test System: E. COLI, Strain/Indicator: WP2UVRA/PKM101, Metabolic Activation: NONE, Method: PREINCUBATION inactive; negative | Test System: E. COLI, Strain/Indicator: WP2UVRA/PKM101, Metabolic Activation: RAT, LIVER, S-9, SODIUM PHENOBARBITAL AND 5,6-BENZOFLAVONE, Method: PREINCUBATION inactive; negative | Test System: E. COLI, Strain/Indicator: WP2UVRA, Metabolic Activation: NONE, Method: PREINCUBATION inactive; negative | Test System: E. COLI, Strain/Indicator: WP2UVRA, Metabolic Activation: RAT, LIVER, S-9, SODIUM PHENOBARBITAL AND 5,6-BENZOFLAVONE, Method: PREINCUBATION inactive; negative

O=C1NC(=O)C(Cl)C1=C(Cl)Cl (centres undefined)
active: Test System: AMES SALMONELLA TYPHIMURIUM, Strain/Indicator: TA100, Metabolic Activation: NONE, Method: STANDARD PLATE active; positive
